Measured values: EP0017679B1, “Pyridylalkylpyrimidone compounds, process for preparing them and pharmaceutical compositions containing them” (SMITH KLINE & FRENCH LABORATORIES LIMITED, priority 1979, dated 1980)

Test system: mice
Assay: acute toxicity (LD50) after bolus intravenous administration
Assay type: in vivo
Settings: ratio to the analogue lacking the 6-substituent (or 5- and 6-substituents) in the pyridyl group
Description: The compounds of Structure (2) have particularly good histamine H,- and H2- antagonist activity and are less acutely toxic in mice (when administered intravenously) than the corresponding compounds of Structure (2) in which R is hydrogen. This decrease in acute toxicity is in general is not accompanied by a reduction in histamine H1-antagonist activity or histamine H2-antagonist activity. […] (LD50 is the minimum dose which kills 50% of mice after bolus intravenous administration of the test compound).

**Q.** With `COc1cccnc1CCCCNc1ncc(Cc2ccc(C)nc2)c(=O)[nH]1` [Example 1, 2-[4-(3-methoxy-2-pyridyl)butylamino]-5-(6-methyl-3-pyridylmethyl)-4-pyrimidone] as the compound, how does the “LD50 value compared with the corresponding 5-(3-pyridylmethyl) analogue” value read?
**A.** The value was “at least three”.

**Q.** Which “LD50 value compared with the corresponding 5-(3-pyridylmethyl) analogue” value does the source give for `Cc1cc(Cc2cnc(NCCSCc3ncccc3Br)[nH]c2=O)cnc1C` [Example 11, 2-[2-(3-bromo-2-pyridylmethylthio)ethylamino]-5-(5,6-dimethyl-3-pyridylmethyl)-4-pyrimidone] here?
**A.** Its value is “at least three”.

**Q.** For `Cc1ccc(Cc2cnc(NCCSCc3nc[nH]c3C)[nH]c2=O)cn1` [Example 2, 2-[2-(5-methyl-4-imidazolylmethylthio)ethylamino]-5-(6-methyl-3-pyridylmethyl)-4-pyrimidone], which “LD50 value compared with the corresponding 5-(3-pyridylmethyl) analogue” value is on record?
**A.** The value was “at least three”.

**Q.** With `COc1ccc(Cc2cnc(NCCSCc3nc[nH]c3C)[nH]c2=O)cn1` [Example 13, 2-[2-(5-methyl-4-imidazolylmethylthio)ethylamino]-5-(6-methoxy-3-pyridyImethyl)-4-pyrimidone] as the compound, how does the “LD50 value compared with the corresponding 5-(3-pyridylmethyl) analogue” value read?
**A.** The value was “at least three”.

**Q.** How did the “LD50 value compared with the corresponding 5-(3-pyridylmethyl) analogue” value turn out when `Cc1ccc(Cc2cnc(NCCSCc3nccs3)[nH]c2=O)cn1` [Example 9, 2-[2-(2-thiazolylmethylthio)ethylamino]-5-(6-methyl-3-pyridylmethyl)-4-pyrimidone] was run?
**A.** Its value is “at least three”.

**Q.** For `Cc1ccc(Cc2cnc(NCCCCc3ncccc3Cl)[nH]c2=O)cn1` [Example 7, 2-[4-(3-chloro-2-pyridyl)butylamino]-5-(6-methyl-3-pyridyImethyl)-4-pyrimidone], which “LD50 value compared with the corresponding 5-(3-pyridylmethyl) analogue” value is on record?
**A.** The value was “at least three”.
